# Data from US20090241221A1, “TANDEM REAPEAT DNA CONSTRUCTS PRODUCING PROTEINS THAT ATTACK PLANT PATHOGENIC VIRUSES, FUNGI, AND BACTERIA BY DISRUPTING TRANSCRIPTION FACTORS ESSENTIAL FOR REPLICATION THEREOF IN PLANTS” (priority 2008, published 2009).
# “Also recorded” adds a separate entry of the source.
# How the values were obtained:
# [1] = tested on: SV40-transformed Balb 3T3 cells; details: cited from earlier work
# [2] = tested on: tomato spotted wilt virus; details: tomato and tobacco plants; cited from earlier work
# mammalian retroviruses = details: millimolar concentrations; measured by release of reverse transcriptase; cited from earlier work
# Mammalian rotaviruses = details: millimolar concentrations; cited from earlier work
# transformed cells = details: Kirsten sarcoma virus transformed cells; Flow Microfluorometric Analysis of DNA; cited from earlier work
# Arabidopsis thaliana [3] = details: cited from earlier work
# [4] = tested on: SV40 transformed BALB-3T3 cells; details: 3 mM picolinic acid; cited from earlier work
# virally infected cells = assay: Apoptosis of virally infected cells; assay type: cell-based; details: for fate of viruses and host cells: HIV-1, Hepatitis C and numerous other viruses as well as the host cells
# Description: APOPTOSIS. Apoptosis is a morphological pattern of cell injury and an important mode of cell death (Robbins, Pathological Basis of Disease, 1999, 6th Ed). Apoptosis shares and overlaps common mechanisms with necrosis. […] This form of cell death is designed to eliminate defective, unwanted and damaged cells. For example, the inventors have shown that cells infected by Herpes Simplex Virus 1 (HSV; labialis) and HSV-2 genitalis are destroyed together with the host cells that they infected by apoptosis when exposed to pyridine carboxylates (Fernandez-Pol, Anticancer Res. 2002). […] Thus, the inventors believes that when host cells of animals or plants are infected by pathogenic viruses, unless the treatment is extremely quickly, the host cells and the virus will be destroyed. In fact, host cells defective, mutated, and reservoirs for the novo synthesis of viruses are unwanted host cells and must be eliminated in many instances to allow the survival of the organism.
# NRK cells = NRK cells treated with picolinic acid; cited from earlier work
# [5] = tested on: normal cells (BALB 3T3, NRK, WI-348); assay: Growth control and cell cycle arrest in normal cells
# recombinant MPS-1 = target: T1, recombinant MPS-1 (Homo sapiens, UniProt P42677); assay: Gel shift assay and Zn65 removal with recombinant MPS-1; assay type: biochemical; details: for zinc dependent binding of recombinant MPS-1 to DNA: gel shift assays
# T1 construct: made in house
# Description: MPS-1 is a ubiquitous tumor marker and cell growth stimulator and is described in detail in the inventors' U.S. Pat. No. 5,243,041. MPS-1 has one zinc finger domain of the type CCCC. […] This is detected by a change in the electrophoretic mobility of MPS-1 under non-denaturing conditions. These experiments indicate that picolinic acid and derivatives should remove zinc and denature various types of zinc finger, zinc ring proteins, or other types of ZF motifs whether known or heretofore undiscovered, including animal or plant viral proteins such as nucleocapsid proteins of retrovirus or the nucleocapsid proteins of Geminivirus. Furthermore, the inventors have determined that any chemical compound, whether known or heretofore undiscovered, that will remove the zinc (or other metal) and denature the proteins or that will form a ternary complex (protein-zinc-chelator) can be effective as an antiviral agent, with nontoxic effects, provided that the agent conforms with certain specific structural requirements.
# [6] = tested on: iron incorporation into the cells; assay: Kinetic and radioisotopic studies of iron in cells; assay type: cell-based
# [7] = tested on: Rice suspension cells and leaves; details: cited from earlier work
# Orobache ramosa = details: Arabidopsis thaliana pre-treated with FU; cited from earlier work
# Arabidopsis thaliana [8] = details: cited from earlier work; remark: listed apart in the source
# HSV-2 = details: tissue culture and animals; cited from earlier work
# HSV-1 = details: tissue culture and animals; cited from earlier work
# [9] = tested on: Arabidopsis thaliana ars27A mutant; details: in comparison with the wild type; cited from earlier work
smiles,measurement,setting,value
"NC(=O)c1cccnc1 [Nicotinamide, reference compound]",effect on cell growth or apoptosis,[1]; 48 h,no effect on cell growth or apoptosis
NC(=O)c1ncn([C@@H]2O[C@H](CO)[C@@H](O)[C@H]2O)n1 [Ribavirin],efficacy against tomato spotted wilt virus,[2],successfully used; also recorded: most efficient in tomato plants
O=C(O)CN(CCOCCOCCN(CC(=O)O)CC(=O)O)CC(=O)O [EGTA],disintegration of viral membranes,mammalian retroviruses,partial disintegration of viral membranes
same,disintegration of viral membranes,Mammalian rotaviruses,partial disintegration of the viral membranes
"O=C(O)c1ccccn1 [picolinic acid, 2-pyridine carboxylic acid]",phase of cell cycle arrest,transformed cells,G1 phase
same,sensitivity of transformed cells to apoptosis,[1],extremely sensitive to apoptosis
same,"marker defense genes PR-1, PR-2 and PDF1.2",Arabidopsis thaliana [3]; dose-dependent and time dependent,all induced
same,salicylic acid-dependent and jasmonic acid/ethylene-dependent pathways,Arabidopsis thaliana [3]; in vivo,strongly activated
same,hypersensitive response (HR),Arabidopsis thaliana [3]; including the oxidative burst and cell death,induced HR
same,mitochondrial cytochrome c release,[4],released cytochrome c
same,fate of viruses and host cells,virally infected cells,Death by apoptosis
same,fate of virally infected cells,virally infected cells; by apoptosis,killed
same,potency of prostaglandin E1 in elevating cyclic AMP,NRK cells,two to five times more potent
same,toxic effects in normal cells,[5]; longer exposure (one week),most normal cells showed no toxic effects; also recorded: no toxic effects
same,cell cycle arrest of normal cells,[5]; short-term treatment,arrests normal cells in G1 (Go)
same,removal of zinc (Zn65) from the CCCC zinc finger of MPS-1,recombinant MPS-1,remove radioactive Zn65 from MPS-1; also recorded: remove zinc
same,zinc dependent binding of recombinant MPS-1 to DNA,recombinant MPS-1,inhibit
same,incorporation of iron into the cells,[6],inhibits incorporation of iron into the cells
same,removal of radioiron from the cells,[6],effectively removes radioiron from the cells
same,apoptosis,[7]; Rice suspension cells and leaves,showed apoptosis
same,reactive oxygen species,"[7]; rice suspension cells, Ca^2+-dependent",induced reactive oxygen species (ROS)
same,hypersensitive response (HR),[7]; rice,can elicit the hypersensitive response (HR)
"CCCCc1ccc(C(=O)O)nc1 [fusaric acid, 5-butyl picolinic acid]",germination of the angiosperm parasite,Orobache ramosa,inhibited
same,concentrations that reduced root growth,"Arabidopsis thaliana [8]; also rapid transient membrane hyperpolarization, then large depolarization",> 500 µM
same,concentration eliciting plant defense responses without toxic effects,Arabidopsis thaliana [8]; in vivo,100 nM
same,fate of viruses and host cells,virally infected cells,Death by apoptosis
same,efficacy against viral infection,HSV-2,effective
same,efficacy against viral infection,HSV-1,effective
same,removal of zinc (Zn65) from the CCCC zinc finger of MPS-1,recombinant MPS-1,remove radioactive Zn65 from MPS-1; also recorded: remove zinc
same,zinc dependent binding of recombinant MPS-1 to DNA,recombinant MPS-1,inhibit
"COS(C)(=O)=O [MMS, Methyl Methane Sulphonate]",growth of ars27A seedlings,[9],strongly inhibited
O=C(O)CN(CCN(CC(=O)O)CC(=O)O)CC(=O)O [EDTA],disintegration of viral membranes,mammalian retroviruses,partial disintegration of viral membranes
same,disintegration of viral membranes,Mammalian rotaviruses,partial disintegration of the viral membranes
